Where two headings read alike, the source gives them in different places.
Experiments:
HMG-CoA-Reduktase [1] = biological target: T1, HMG-CoA-Reduktase (Rattus norvegicus, UniProt P51639); assay: Inhibition of HMG-CoA reductase activity in solubilised enzyme preparations from rat liver microsomes; assay type: biochemical, Ratten; conditions: solubilised enzyme from liver microsomes of cholestyramine-induced rats; substrate (S,R)14C-HMG-CoA; mean of 3 parallel samples; read-out: IC50-Wert M
T1 construct: solubilisierten Enzympräparationen aus Lebermikrosomen von Ratten; from tissue; host or cells: rat liver microsomes (rats induced with cholestyramine after day-night rhythm shift)
T1 sequence (P51639 1-887): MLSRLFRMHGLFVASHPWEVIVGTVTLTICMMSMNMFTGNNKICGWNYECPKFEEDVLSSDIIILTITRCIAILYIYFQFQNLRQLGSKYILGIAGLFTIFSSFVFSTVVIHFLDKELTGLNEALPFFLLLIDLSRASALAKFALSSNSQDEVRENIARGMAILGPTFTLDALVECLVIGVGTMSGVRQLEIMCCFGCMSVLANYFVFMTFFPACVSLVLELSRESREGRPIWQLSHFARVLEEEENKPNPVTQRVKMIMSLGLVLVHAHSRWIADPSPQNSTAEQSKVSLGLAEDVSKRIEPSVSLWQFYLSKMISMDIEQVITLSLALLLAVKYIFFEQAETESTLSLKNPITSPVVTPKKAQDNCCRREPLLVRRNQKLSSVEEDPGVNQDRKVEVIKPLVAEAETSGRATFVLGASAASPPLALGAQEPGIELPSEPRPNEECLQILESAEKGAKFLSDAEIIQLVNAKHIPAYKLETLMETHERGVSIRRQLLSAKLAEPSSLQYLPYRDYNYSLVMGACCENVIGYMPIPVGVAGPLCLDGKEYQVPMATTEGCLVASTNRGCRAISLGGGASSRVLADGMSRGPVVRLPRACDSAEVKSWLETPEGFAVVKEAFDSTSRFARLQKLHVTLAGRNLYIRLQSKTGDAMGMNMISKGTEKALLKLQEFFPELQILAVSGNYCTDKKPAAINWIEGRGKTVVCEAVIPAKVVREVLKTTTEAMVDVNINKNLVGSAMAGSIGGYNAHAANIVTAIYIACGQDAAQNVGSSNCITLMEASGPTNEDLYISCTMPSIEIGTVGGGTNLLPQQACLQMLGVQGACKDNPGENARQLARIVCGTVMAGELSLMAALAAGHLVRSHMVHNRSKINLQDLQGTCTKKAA
Excerpt: 1) Inhibierung der HMG-CoA-Reduktase-Aktivität an solubilisierten Enzympräparationen aus Ratten-Lebermikrosomen
Die HMG-CoA-Reduktase-Aktivität wurde an solubilisierten Enzympräparationen aus Lebermikrosomen von Ratten gemessen, die nach Umstellung im Tag-Nacht-Rhythmus mit Cholestyramin (@Cuemid) induziert wurden. Als Substrat diente (S,R)^14C-HMG-CoA, die Konzentration von NADPH wurde während der Inkubation durch ein regenerierendes System aufrechterhalten. Die Abtrennung von ^14C-Me- valonat von Substrat und anderen Produkten (z.B. ^14C-HMG) erfolgte über Säulenelution, wobei das Elutionsprofil jeder Einzelprobe ermittelt wurde. Auf die ständige Mitführung von ^3H-Mevalonat wurde verzichtet, weil es bei der Bestimmung um die Relativangabe der Hemmwirkung handelt. In eine Versuchsreihe wurden jeweils die enzymfreie Kontrolle, der enzymhaltige Normalansatz (= 100%) und solche mit Präparatezusätzen zusammen behandelt. Jeder Einzelwert wurde als Mittelwert aus 3 Parallelproben gebildet. Die Signifikanz der Mittelwertsunterschiede zwischen präparatefreien und präparatehaltigen Proben wurde nach dem t-Test beurteilt. Nach der oben beschriebenen Methode wurden von den erfindungsgemäßen Verbindungen z.B. folgende Hemmwerte auf die HMG-CoA-Reduktase ermittelt (IC50-Wert M = molare Konzentration der Verbindung, die für eine 50%ige Hemmung erforderlich ist): […]

[2] = im Humanversuch; cited from earlier work
[3] = an der Ratte; cited from earlier work
HMG-CoA-Reduktase [4] = biological target: T2, HMG-CoA-Reduktase (Mus musculus, UniProt Q01237); assay: Suppression or inhibition of HMG-CoA reductase in cell cultures of fibroblasts (L cells); assay type: cell-based; conditions: 3 h incubation of confluent L-Zellen in lipoprotein-free medium; molar concentration for 50% inhibition of HMG-CoA reductase activity
T2 construct: dann wurde die HMG-CoA-Reduktaseaktivität der Zellen, modifiziert nach Chang et al; endogenous in cells; host or cells: L cells (fibroblasts)
T2 sequence (Q01237 1-887): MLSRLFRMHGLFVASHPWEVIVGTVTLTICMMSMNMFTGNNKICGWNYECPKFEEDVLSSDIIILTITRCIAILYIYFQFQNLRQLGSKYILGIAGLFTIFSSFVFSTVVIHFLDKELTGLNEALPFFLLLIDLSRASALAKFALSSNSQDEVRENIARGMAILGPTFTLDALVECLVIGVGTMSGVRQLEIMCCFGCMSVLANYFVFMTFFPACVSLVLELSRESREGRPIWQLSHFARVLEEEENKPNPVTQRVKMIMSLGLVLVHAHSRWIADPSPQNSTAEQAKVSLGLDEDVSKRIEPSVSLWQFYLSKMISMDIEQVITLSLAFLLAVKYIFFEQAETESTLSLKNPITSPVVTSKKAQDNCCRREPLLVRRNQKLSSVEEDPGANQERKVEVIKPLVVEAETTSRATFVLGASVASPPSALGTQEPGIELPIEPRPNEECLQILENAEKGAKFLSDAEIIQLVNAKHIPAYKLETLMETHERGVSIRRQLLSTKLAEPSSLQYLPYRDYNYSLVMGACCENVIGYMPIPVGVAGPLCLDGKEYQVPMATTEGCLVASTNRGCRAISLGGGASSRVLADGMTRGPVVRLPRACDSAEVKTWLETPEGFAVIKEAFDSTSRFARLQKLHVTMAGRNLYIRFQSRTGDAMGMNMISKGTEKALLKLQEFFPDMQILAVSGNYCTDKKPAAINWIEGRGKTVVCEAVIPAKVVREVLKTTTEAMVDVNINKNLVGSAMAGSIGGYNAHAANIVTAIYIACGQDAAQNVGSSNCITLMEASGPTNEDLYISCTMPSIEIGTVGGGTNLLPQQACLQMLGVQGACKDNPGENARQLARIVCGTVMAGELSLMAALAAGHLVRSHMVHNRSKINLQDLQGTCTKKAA
Excerpt: 2. Supprimierung bzw. Inhibierung der HMG-CoA-Reduktase in Zellkulturen von Fibroblasten
Monolayers von Fibroblasten (L-Zellen) in lipoproteinfreiem Nährmedium wurden mit entsprechenden Konzentrationen der Prüfsubstanzen eine bestimmte Zeit (z.B. 3 Stunden) inkubiert, dann wurde die HMG-CoA-Reduktaseaktivität der Zellen, modifiziert nach Chang et al. (J. Biol. Chem. 256, 6174 (1981) bestimmt. Dazu wurden die Zellextrakte mit D, L [^3H]-HMG-CoA inkubiert und das unter der Einwirkung der vorhandenen HMG-CoA-Reduktaseaktivität aus den Zellen gebildete Produkt [3H]-Mevalonat nach Cyclisierung zu [^3H]-Mevalonolacton dünnschichtchromatographisch vom Ausgangsprodukt getrennt und unter Verwendung eines internen Standards von ^14C-Mevalonat die Menge des in der Zeiteinheit gebildeten [3H]-Mevalonats, bezogen auf Zellproteinmenge bestimmt. Die unter Zusatz einer bestimmten Konzentration eines Prüfpräparates gefundene HMG-CoA-Reduktaseaktivität der Zellkultur wurde prozentual auf jene einer gleichbehandelten ohne Prüfpräparat, jedoch gleicher Lösungsmittelkonzentration, bezogen.
Unter der Bedingung einer dreistündigen Inkubationszeit konfluenter L-Zellen im lipoproteinfreien Nährmedium mit den untersuchten Verbindungen wurden folgende für eine 50%ige Hemmung der HMG-CoA-Reduktaseaktivität (ICso) erforderliche molare Konzentration der Prüfpräparate ermittelt: […]

| SMILES | IC50 (HMG-CoA-Reduktase [1]) [nM] | IC50 (HMG-CoA-Reduktase [4]) [nM] | further results |
| --- | --- | --- | --- |
| O=C1C[C@H](O)C[C@@H](COc2c(Cl)cc(Cl)cc2CC2CCCCC2)O1 [44 kk] | 25 |  |  |
| O=C1C[C@H](O)C[C@@H](COc2c(Cl)cc(Cl)cc2-c2ccccc2)O1 [44 mm] | 190 |  |  |
| CC(O)(CC(=O)O)CC(=O)O [3-Hydroxy-3-methyl-glutarsäure] |  |  | cholesterinsenkende Wirkung [2]: signifikante cholesterinsenkende Wirkung; cholesterinsenkende Wirkung [3]: signifikante cholesterinsenkende Wirkung |
| Cc1cc(Cl)cc(CCCOc2ccc(Cl)cc2)c1OC[C@@H]1C[C@@H](O)CC(=O)O1 [44 x] | 50 | 14000 |  |
| Cc1cc(C)c(OC[C@@H]2C[C@@H](O)CC(=O)O2)c(CC2CCCCC2)c1 [44 z] | 100 |  |  |
| CC(C)(C)C(=O)OCCCc1cc(Cl)cc(CCCOc2ccc(F)cc2)c1OC[C@@H]1C[C@@H](O)CC(=O)O1 [44 l] | 7000 |  |  |
| Cc1cc(Cl)cc(CC2CCCCC2)c1OC[C@@H]1C[C@@H](O)CC(=O)O1 [44 y] | 75 | 15000 |  |
| C=CCc1cc(Cl)cc(CCCOc2ccc(F)cc2)c1OC[C@@H]1C[C@@H](O)CC(=O)O1 [44 j] | 460 | 100000 |  |
| O=C1C[C@H](O)C[C@@H](COc2c(Cl)cc(Cl)cc2C(=O)C2CCCCC2)O1 [44 nn] | 190 |  |  |

The next lines start with results.

| IC50 (HMG-CoA-Reduktase [1]) [nM] | IC50 (HMG-CoA-Reduktase [4]) [nM] | SMILES | further results |
| --- | --- | --- | --- |
| 530 |  | Cc1cc(C)c(OC[C@@H]2C[C@@H](O)CC(=O)O2)c(CCc2ccc(F)cc2)c1 [44 m] |  |
| 50 |  | Cc1cc(C(c2ccc(F)c(C)c2)c2cc(Cl)cc(C)c2OC[C@@H]2C[C@@H](O)CC(=O)O2)ccc1F [44 hh] |  |
| 500 |  | Cc1cc(C)c(OC[C@@H]2C[C@@H](O)CC(=O)O2)c(CCOc2ccc(F)cc2)c1 [44 t] |  |
| 160 |  | Cc1cc(C)c(OC[C@@H]2C[C@@H](O)CC(=O)O2)c(C(C)c2ccc(F)cc2)c1 (stereo partly drawn) [44 r] |  |
| 100 | 40000 | COc1ccc(C(c2ccc(F)cc2)c2cc(C)cc(C)c2OC[C@@H]2C[C@@H](O)CC(=O)O2)cc1 (stereo partly drawn) [44 v] |  |
| 70 | 50000 | Cc1cc(C)c(OC[C@@H]2C[C@@H](O)CC(=O)O2)c(C(c2ccc(F)cc2)c2ccc(F)cc2)c1 [44 q] |  |
| 140 |  | Cc1cc(C)c(OC[C@@H]2C[C@@H](O)CC(=O)O2)c(C(CC(C)C)c2ccc(F)cc2)c1 (stereo partly drawn) [44 u] |  |
| 75 | 10000 | Cc1cc(Cl)cc(CCCOc2ccc(F)cc2)c1OC[C@@H]1C[C@@H](O)CC(=O)O1 [44 i] |  |
| 400 |  | Cc1cc(C)c(OC[C@@H]2C[C@@H](O)CC(=O)O2)c(Cc2ccc(F)cc2)c1 [44 s] |  |
| 150 |  | O=C1C[C@H](O)C[C@@H](COc2c(Cl)cc(Cl)cc2C(CCOc2ccc(F)cc2)c2ccc(F)cc2)O1 (stereo partly drawn) [44 dd] |  |
| 100 |  | Cc1cc(Cl)cc(C(c2ccc(F)cc2)c2ccc(F)cc2)c1OC[C@@H]1C[C@@H](O)CC(=O)O1 [44 bb] |  |

— patent publication EP0216127B1, “6-Phenoxymethyl-4-hydroxytetrahydropyran-2-ones, process for their preparation, their use as medicines, pharmaceutical compositions and intermediates” (HOECHST AKTIENGESELLSCHAFT, priority 1985, dated 1987)
